Reference: patent US20250381198A1 (Melt Pharmaceuticals, Inc., priority 2024, published 2025)

Assays:
[1] = Phase 1 crossover relative bioavailability study: plasma pharmacokinetics of midazolam, 1-hydroxymidazolam, ketamine and norketamine; settings: Treatment C: midazolam IV 3.5 mg, fasted
Protocol: PK analysis was performed using noncompartmental methods in Phoenix WinNonlin® (Version 8.1, Certara, L.P.) in conjunction with the internet-accessible implementation of the Pharsight® Knowledgebase Server™ (PKSO; Version 4.0.4, Certara, L.P). PKSO provides protected and structured storage, audit trails, and version control for study data, analyses, and related files, supporting 21 CFR Part 11 compliance. The analysis was performed in accordance with the Statistical Analysis Plan (Version 1.0, 5 Jan. 2021).
During the PK analysis, concentrations below the limit of quantitation (BLQ) up to the time of the first quantifiable concentration were treated as zero. Embedded (values between 2 quantifiable concentrations) and terminal BLQ concentrations were treated as “missing”. Calculation of the PK characteristics were based on actual elapsed times [h] (relative to time of dose).
All PK analyses were performed on the data from the PK Analysis Population. […] The ANOVA model included factors for sequence, subject within sequence, treatment, and period.

[2] = test system: subjects undergoing cataract extraction with lens replacement (CELR); assay: Phase 2: subject-rated worst pain during surgery by the numeric pain rating scale; type: in vivo, human; settings: Full Analysis Set
[3] = test system: subjects undergoing cataract extraction with lens replacement (CELR); assay: Phase 2: subjects receiving opioid concomitant medication postoperatively; type: in vivo, human; settings: Full Analysis Set; percent of subjects
[4] = test system: subjects undergoing cataract extraction with lens replacement (CELR); assay: Phase 2 MELT-300: subjects achieving procedural sedation (RSS level 2 or 3 without rescue); type: in vivo, human
Protocol: Achievement of procedural sedation was evaluated for each subject (see TABLE 20). Success for procedural sedation for this Phase 2 study was defined as achieving target sedation level (Ramsay Sedation Scale (RSS) scale level 2 or 3) at the start of surgery without the need for rescue sedation medication, and no need for intraoperative rescue sedation medication to maintain target sedation level.

[5] = test system: subjects undergoing cataract extraction with lens replacement (CELR); assay: Phase 2: subjects completing the surgery (and without interruption); type: in vivo, human; settings: Visit 2 (Day 1); Full Analysis Set
Protocol: The number of subjects achieving analgesia response (observed) in the full analysis set was determined. Success in analgesia response was defined as NPRS<4 at the available at the available four intraoperative timepoints and a failure otherwise (e.g., any interoperative pain rescue was assumed to be a failure. Results are provided in TABLE 25. The number of subjects completing the surgery is provided in TABLE 26, and the number of subjects completing the surgery without interruption is provided in TABLE 27. For this measure, subjects completing the surgery without interruption (other than rescue medication) due to pain or anxiety were considered successes. The number of subjects requiring rescue sedative medication and those requiring analgesic medication are provided in TABLES 28 and 29, respectively. For all TABLES 25-29, p-Values between pairs of treatments were calculated and are provided.

[6] = test system: subjects undergoing cataract extraction with lens replacement (CELR); assay: Phase 2: treatment-emergent ocular adverse events and serious adverse events; settings: for Cataract operation complication, % / Conjunctivitis bacterial, % / Corneal abrasion, % / Corneal oedema, % / Endophthalmitis, % / Eye disorders, % / Eye pain, % / Foreign body sensation in eyes, % / General disorders and administration site conditions, % / Infections and infestations, % / Injury, poisoning and procedural complications, % / Intraocular pressure increased, % / Investigations, % / Ocular hypertension, % / Pain, % / Paracentesis eye, % / Procedural pain, % / Subjects with Any Treatment-Emergent Ocular AEs, % / Vision blurred, %: Full Analysis Set
Protocol: The study eye (TABLE 32) non-study eye (TABLE 33), or either eye (TABLE 34) was assessed. TEAES were defined as events that started on or after the date of the study drug administration through the end of Visit 4 or early withdrawal. Subjects with one or more adverse event within a level of Medical Dictionary for Regulatory Activities (MedDRA) were counted only once in that level. […] TEAEs of special interest by system, organ class, and preferred term are provided in TABLE 35 for the full analysis set.

[7] = carry forward, MELT-300, midazolam 3 mg, ketamine 50 mg
[8] = Visit 2 (Day 1), Full Analysis Set, single sublingual tablet (MELT-300; midazolam 3 mg; ketamine 50 mg)

Cc1ncc2n1-c1ccc(Cl)cc1C(c1ccccc1F)=NC2 [Midazolam, 8-chloro-6-(2-fluorophenyl)-1-methyl-4H-imidazo[1,5-a][1,4]benzodiazepine]
Midazolam AUCExtrap, mean [1]: 5.58%
Midazolam Clast, mean [1]: 0.963 ng/mL
Worst pain: Mean Difference versus Placebo [2]: 0.05
Worst Pain During Surgery (NPRS), Mean [2, 7]: 4.0
Worst Pain During Surgery (NPRS), Median [2, 7]: 4.0
Worst pain: Mean Difference versus Ketamine ([2]; versus ketamine 50 mg): 0.38
Received Postoperative Opioid on Day 2-8: No, % [3]: (100.0) %
Received Postoperative Opioid on Day 2-8: Yes, % [3]: (0.0) %
Received Postoperative Opioid on Day 2: No, % [3]: (100.0) %
Received Postoperative Opioid on Day 2: Yes, % [3]: (0.0) %
Subjects who achieved target sedation ([4]; Full analysis set, MELT-300, 3 mg midazolam alone, 50 mg ketamine alone, sublingual): 64.2%
Subjects achieving procedural sedation: No [4, 8]: 29 (35.8) n (%)
Subjects achieving procedural sedation: Yes [4, 8]: 52 (64.2) n (%)
Subjects completing the surgery: No [5]: 0 (0) n (%)
Subjects completing the surgery: Yes [5]: 81 (100.0) n (%)
Cataract operation complication, % ([6]; Either Eye): (0) %
Conjunctivitis bacterial, % ([6]; Either Eye): (0) %
Corneal abrasion, % ([6]; Either Eye): (0) %
Corneal oedema, % ([6]; Either Eye): (0) %
Endophthalmitis, % ([6]; Either Eye): (0) %
Eye disorders, % ([6]; Either Eye): (5.7) %
Eye pain, % ([6]; Either Eye): (3.4) %
Foreign body sensation in eyes, % ([6]; Either Eye): (0) %
General disorders and administration site conditions, % ([6]; Either Eye): (0) %
Infections and infestations, % ([6]; Either Eye): (0) %
Injury, poisoning and procedural complications, % ([6]; Either Eye): (1.1) %
Intraocular pressure increased, % ([6]; Either Eye): (2.3) %
Investigations, % ([6]; Either Eye): (2.3) %
Ocular hypertension, % ([6]; Either Eye): (1.1) %
Pain, % ([6]; Either Eye): (0) %
Paracentesis eye, % ([6]; Either Eye): (0) %
Procedural pain, % ([6]; Either Eye): (1.1) %
Subjects with Any Treatment-Emergent Ocular AEs, % ([6]; Either Eye): (9.2) %
Vision blurred, % ([6]; Either Eye): (1.1) %
Paracentesis eye, % ([6]; Non-Study Eye (as printed in Table 33)): (0) %
Conjunctivitis bacterial, % ([6]; Non-Study Eye): (0) %
Eye disorders, % ([6]; Non-Study Eye): (1.1) %
Eye pain, % ([6]; Non-Study Eye): (0) %
Infections and infestations, % ([6]; Non-Study Eye): (0) %
Subjects with Any Treatment-Emergent Ocular AEs, % ([6]; Non-Study Eye): (1.1) %
Vision blurred, % ([6]; Non-Study Eye): (1.1) %
Cataract operation complication, % ([6]; Study Eye): (0) %
Corneal abrasion, % ([6]; Study Eye): (0) %
Corneal oedema, % ([6]; Study Eye): (0) %
Endophthalmitis, % ([6]; Study Eye): (0) %
Eye disorders, % ([6]; Study Eye): (4.6) %
Eye pain, % ([6]; Study Eye): (3.4) %
Foreign body sensation in eyes, % ([6]; Study Eye): (0) %
General disorders and administration site conditions, % ([6]; Study Eye): (0) %
Infections and infestations, % ([6]; Study Eye): (0) %
Injury, poisoning and procedural complications, % ([6]; Study Eye): (1.1) %
Intraocular pressure increased, % ([6]; Study Eye): (2.3) %
Investigations, % ([6]; Study Eye): (2.3) %
Ocular hypertension, % ([6]; Study Eye): (1.1) %
Pain, % ([6]; Study Eye): (0) %
Procedural pain, % ([6]; Study Eye): (1.1) %
Subjects with Any Treatment-Emergent Ocular AEs, % ([6]; Study Eye): (8.0) %
Subjects who experienced a treatment-emergent ocular adverse event, study eye ([6]; overall, MELT-300, midazolam alone, ketamine alone): 8.0%
